Results as given in PubChem BioAssay AID1918953 (Molecular Pharmacology Branch, DTP, NCI, 2023).

Test system: MDA-MB-231 complex spheroid viability
Assay: Anticancer human tumor MDA-MB-231/ATCC cell line growth inhibition;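 further: drug exposure lasted 7 days starting on day 3 of spheroid growth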
Conditions: for IC50: curve of first compound; for viability, T/C: stronger effect = lower value
Excerpt: Multicellular complex tumor spheroid response to LSD1 Inhibitor Iadademstat in combination with a variety of drugs and investigational agents in selected tumor cell lines
The current study was undertaken to assess response to LSD1 inhibitors in combination with standard-of-care drugs and investigational agents in solid tumor complex spheroid models as well as in the K-562 leukemia. Complex spheroids include a stromal component modeled by human endothelial cells (HUVEC) and fibroblasts modeled by human mesenchymal stem cells (MSCs). The concentration ranges selected for each drug and investigational agent were based upon clinically achievable concentrations if the clinical Cmax of the agent was known.
Compounds. The drugs and investigational agents used in this study are listed on Table 1. All of the agents used, including staurosporine (NSC755774) and gemcitabine (NSC613327), were obtained from the Developmental Therapeutics Program, NCI. FDA-approved anticancer drugs are available from the NCI at http://dtp.nci.nih.gov/branches/dscb/oncology_drugset_explanation.html. Drugs and investigational agents were >95% pure by proton nuclear magnetic resonance (NMR) and liquid chromatography/mass spectrometry (LC/MS). Stock solutions were prepared at 400x in DMSO, stored at -70 degrees C, and diluted in fresh medium prior to their use. The final concentration of DMSO in cell culture wells never exceeded 0.25% (v/v). The FDA-approved anticancer drug set is available from the Developmental Therapeutics Program at https://dtp.cancer.gov/organization/dscb/obtaining/available_plates.htm. All drugs and investigational agents were tested over a range starting from a high concentration at or near the clinical Cmax and decreasing in half-log increments. If the clinical Cmax for an agent had not been determined, the highest concentration tested was 10 microM.
Cell Lines. The patient-derived cancer cell (PDC) lines: 292921-168-R-J2-PDC, K24384-001-R-PDC, and 521955-158-R2-J5-PDC pancreatic carcinomas, 556581-035-R-J1 ovarian carcinoma, 324938-238-R-J1-PDC, 855422-203-R-J1-PDC and 883617-216-R-J1-PDC urothelial bladder carcinomas, 743489-274-T-PDC renal cell carcinoma, 138582-R-J1 Merkel cell tumor, K60290-347-R-J1 and K57222-313-R-J1-PDC glioblastomas, 653999-131-R-J2-PDC, LG0703-F948-PDC, and 349418-098-R-PDC non-small cell lung carcinomas, 885512-296-R-J2-PDC, 171881-019-R-J1-PDC breast carcinomas and 186277-243-T-J2-PDC and 233499-124-R-J2-PDC colon carcinomas were obtained from the NCI Patient-Derived Models Repository (PDMR, https://pdmr.cancer.gov). The established cell lines NCI/ADR-RES (RRID:CVCL_14520 and OVCAR-5 (RRID:CVCL_1628) ovarian carcinomas, 786-O (RRID:CVCL_1051) and A498 (RRID:CVCL_A498) renal cell carcinoma, NCI-H211 (ATCC, cat. CRL-5824; RRID:CVCL_1529), NCI-H196 (ATCC, cat. CRL-5823, RRID:CVCL_1509), SW 1271 (ATCC, cat. CRL-2177, RRID:CVCL_1716) and NCI-H1876 (ATCC, cat. CRL-5902, RRID:CVCL_1503) small cell lung carcinomas, MDA-MB-231 (RRID:CVCL_0062) and MDA-MB-468 (RRID:CVCL_0419)breast carcinomas (10-12). Pooled donor human umbilical vein endothelial cells (HUVEC, Lonza, cat. CC-2519) and human mesenchymal stem cells (hMSC, Lonza, cat. PT-2501) were purchased from Lonza (Walkersville, MD).
Cell Culture. All cells were maintained in an incubator at 37 degrees C and 5% CO2 with 95% humidity. The PDC lines were cultured according to standard operating procedures established by the NCI PDMR (https://pdmr.cancer.gov). Briefly all PDCs were thawed and cultured in Matrigel-coated flasks prepared with a working solution of 1X Ham's F-12 nutrient mix, without supplementation (Invitrogen, Waltham, MA, cat. 11765054), 100 U/mL penicillin-streptomycin (Invitrogen, cat. 15140122), and 2.5% Matrigel (Corning Inc., Corning, NY, cat. 354248) for the first three passages. […]

[1] = second compound 0.1 µM, first compound 0.000949 µM
[2] = second compound 0.1 µM, first compound 0.003 µM
[3] = second compound 0.1 µM, first compound 0.00949 µM
[4] = second compound 0.1 µM, first compound 0.03 µM
[5] = second compound 0.1 µM, first compound 0.0949 µM
[6] = second compound 0.1 µM, first compound 0.3 µM
[7] = second compound 0.316 µM, first compound 0.000949 µM
[8] = second compound 0.316 µM, first compound 0.003 µM
[9] = second compound 0.316 µM, first compound 0.00949 µM
[10] = second compound 0.316 µM, first compound 0.03 µM
[11] = second compound 0.316 µM, first compound 0.0949 µM
[12] = second compound 0.316 µM, first compound 0.3 µM
[13] = second compound 1 µM, first compound 0.000949 µM
[14] = second compound 1 µM, first compound 0.003 µM
[15] = second compound 1 µM, first compound 0.00949 µM
[16] = second compound 1 µM, first compound 0.03 µM
[17] = second compound 1 µM, first compound 0.0949 µM
[18] = second compound 1 µM, first compound 0.3 µM
[19] = second compound 3.16 µM, first compound 0.000949 µM
[20] = second compound 3.16 µM, first compound 0.003 µM
[21] = second compound 3.16 µM, first compound 0.00949 µM
[22] = second compound 3.16 µM, first compound 0.03 µM
[23] = second compound 3.16 µM, first compound 0.0949 µM
[24] = second compound 3.16 µM, first compound 0.3 µM
[25] = second compound 10 µM, first compound 0.000949 µM
[26] = second compound 10 µM, first compound 0.003 µM
[27] = second compound 10 µM, first compound 0.00949 µM
[28] = second compound 10 µM, first compound 0.03 µM
[29] = second compound 10 µM, first compound 0.0949 µM
[30] = second compound 10 µM, first compound 0.3 µM

SMILES: CCc1c2c(nc3ccc(O)cc13)-c1cc3c(c(=O)n1C2)COC(=O)[C@]3(O)CC + NC1CC1c1ccc(-c2cccc(O)c2)cc1
- IC50 (second compound 0.1 µM): < 0.949 nM
- IC50 (second compound 0.316 µM): < 0.949 nM
- IC50 (second compound 1 µM): < 0.949 nM
- IC50 (second compound 3.16 µM): < 0.949 nM
- IC50 (second compound 10 µM): < 0.949 nM
- viability, T/C [1]: 22.7%
- viability, T/C [2]: 19.7%
- viability, T/C [3]: 18.3%
- viability, T/C [4]: 4.83%
- viability, T/C [5]: 1.03%
- viability, T/C [6]: 0.74%
- viability, T/C [7]: 22.5%
- viability, T/C [8]: 22%
- viability, T/C [9]: 19.4%
- viability, T/C [10]: 5.07%
- viability, T/C [11]: 0.91%
- viability, T/C [12]: 0.54%
- viability, T/C [13]: 23.9%
- viability, T/C [14]: 20.1%
- viability, T/C [15]: 17.1%
- viability, T/C [16]: 5.94%
- viability, T/C [17]: 0.68%
- viability, T/C [18]: 0.61%
- viability, T/C [19]: 22.4%
- viability, T/C [20]: 20.1%
- viability, T/C [21]: 18.4%
- viability, T/C [22]: 5.48%
- viability, T/C [23]: 0.85%
- viability, T/C [24]: 0.54%
- viability, T/C [25]: 18.5%
- viability, T/C [26]: 20.4%
- viability, T/C [27]: 13.1%
- viability, T/C [28]: 1.68%
- viability, T/C [29]: 0.74%
- viability, T/C [30]: 0.5%

SMILES: Nc1ccn(C2OC(CO)C(O)C2(F)F)c(=O)n1 (stereo not given) + NC1CC1c1ccc(-c2cccc(O)c2)cc1
- IC50 (second compound 0.1 µM): < 0.949 nM
- IC50 (second compound 0.316 µM): < 0.949 nM
- IC50 (second compound 1 µM): < 0.949 nM
- IC50 (second compound 3.16 µM): < 0.949 nM
- IC50 (second compound 10 µM): < 0.949 nM
- viability, T/C [1]: 30.5%
- viability, T/C [2]: 24.4%
- viability, T/C [3]: 22.2%
- viability, T/C [4]: 19.4%
- viability, T/C [5]: 17.4%
- viability, T/C [6]: 12%
- viability, T/C [7]: 28%
- viability, T/C [8]: 23.6%
- viability, T/C [9]: 21.3%
- viability, T/C [10]: 14.5%
- viability, T/C [11]: 14.1%
- viability, T/C [12]: 12.9%
- viability, T/C [13]: 30.8%
- viability, T/C [14]: 21.8%
- viability, T/C [15]: 22.4%
- viability, T/C [16]: 15.6%
- viability, T/C [17]: 15.3%
- viability, T/C [18]: 12.3%
- viability, T/C [19]: 33.8%
- viability, T/C [20]: 23.9%
- viability, T/C [21]: 19.9%
- viability, T/C [22]: 17.5%
- viability, T/C [23]: 15.8%
- viability, T/C [24]: 11.3%
- viability, T/C [25]: 22.9%
- viability, T/C [26]: 18.1%
- viability, T/C [27]: 16%
- viability, T/C [28]: 13.6%
- viability, T/C [29]: 10.9%
- viability, T/C [30]: 9.95%

SMILES: O=C(c1cc(Cc2n[nH]c(=O)c3ccccc23)ccc1F)N1CCN(C(=O)C2CC2)CC1 + NC1CC1c1ccc(-c2cccc(O)c2)cc1
- IC50 (second compound 0.1 µM): 1730 nM
- IC50 (second compound 0.316 µM): 522 nM
- IC50 (second compound 1 µM): 378 nM
- IC50 (second compound 3.16 µM): 349 nM
- IC50 (second compound 10 µM): < 31.6 nM
- viability, T/C (second compound 0.1 µM, first compound 0.0316 µM): 71.6%
- viability, T/C (second compound 0.1 µM, first compound 0.1 µM): 64.2%
- viability, T/C (second compound 0.1 µM, first compound 0.316 µM): 67%
- viability, T/C (second compound 0.1 µM, first compound 1 µM): 56.1%
- viability, T/C (second compound 0.1 µM, first compound 3.16 µM): 42.7%
- viability, T/C (second compound 0.1 µM, first compound 10 µM): 27.1%
- viability, T/C (second compound 0.316 µM, first compound 0.0316 µM): 65.5%
- viability, T/C (second compound 0.316 µM, first compound 0.1 µM): 60.6%
- viability, T/C (second compound 0.316 µM, first compound 0.316 µM): 54.8%
- viability, T/C (second compound 0.316 µM, first compound 1 µM): 44.5%
- viability, T/C (second compound 0.316 µM, first compound 3.16 µM): 32.3%
- viability, T/C (second compound 0.316 µM, first compound 10 µM): 24.8%
- viability, T/C (second compound 1 µM, first compound 0.0316 µM): 59.6%
- viability, T/C (second compound 1 µM, first compound 0.1 µM): 56.9%
- viability, T/C (second compound 1 µM, first compound 0.316 µM): 50.7%
- viability, T/C (second compound 1 µM, first compound 1 µM): 44.3%
- viability, T/C (second compound 1 µM, first compound 3.16 µM): 32%
- viability, T/C (second compound 1 µM, first compound 10 µM): 21.1%
- viability, T/C (second compound 3.16 µM, first compound 0.0316 µM): 65.3%
- viability, T/C (second compound 3.16 µM, first compound 0.1 µM): 54.1%
- viability, T/C (second compound 3.16 µM, first compound 0.316 µM): 50.6%
- viability, T/C (second compound 3.16 µM, first compound 1 µM): 45.1%
- viability, T/C (second compound 3.16 µM, first compound 3.16 µM): 33%
- viability, T/C (second compound 3.16 µM, first compound 10 µM): 22.2%
- viability, T/C (second compound 10 µM, first compound 0.0316 µM): 45.4%
- viability, T/C (second compound 10 µM, first compound 0.1 µM): 38.2%
- viability, T/C (second compound 10 µM, first compound 0.316 µM): 36.4%
- viability, T/C (second compound 10 µM, first compound 1 µM): 37.2%
- viability, T/C (second compound 10 µM, first compound 3.16 µM): 23.3%
- viability, T/C (second compound 10 µM, first compound 10 µM): 19.9%
